Reference: patent publication US20260284240A1, “RADIOLABELED COMPOUND FOR USE IN A METHOD OF TREATING CARBONIC ANHYDRASE IX POSITIVE DISEASES” (DEBIOPHARM INTERNATIONAL S.A., priority 2023, published 2026)
Like-named read-outs stand apart in the source and are kept apart here. Starred links: 1 amine or outer side, 2 acyl side, 3 side chain; linkers in the order of their positions; H or OH if unused. Positions of bridges follow the written chain, without caps; N, C: chain ends. Non-standard residues stand in square brackets, D forms with d. Residues, ends and D or L forms follow the SMILES beside them. *: point of attachment. Phe(3-NHCO(CH2)3SO2NH2) = N[C@@H](Cc1cccc(NC(=O)CCCS(N)(=O)=O)c1)C(=O)O; DOTA = O=C(O)CN1CCN(CC(=O)O)CCN(CC(=O)*)CCN(CC(=O)O)CC1; mXylylene = c1cc(C[*:1])cc(C[*:2])c1; X1 = O=C(CN1CCN([*:1])CC1)[*:2]

Legend:
[1] = Dose range finding toxicity study by i.v. bolus in male beagle dogs; type: in vivo, dog; details: i.v. bolus up to 800 μg/kg
Description: The following parameters and endpoints were evaluated: mortality, clinical observations, body weights, food consumption, local reactions, clinical pathology parameters (hematology, coagulation, and clinical chemistry), organ weights, and macroscopic examinations. Both animals were sampled for toxicokinetics (TK) on each dosing occasion (i.e., on day 1, day 5, day 9 and day 13) at: pre-dose, 15 min, 30 min, 1 h, 6 h and 24 h. Blood samples were collected in K2EDTA tubes. Plasma was prepared by centrifugation (2500 g for 10 minutes, +4° C.) within 1 hour after collection, and then frozen within 1 hour after centrifugation and stored at −80° C. […] Chromatographic separation was achieved using a Waters Acquity UPLC system with a Waters Acquity HSS T3 C18 2.1×50 mm, 1.8 μm column. Chromatography was conducted at 50° C. at a flow rate of 0.7 mL/min using a mobile phase consisting of A: acetonitrile, and B: 1% formic acid in water, according to the following linear gradient: 0 to 0.1 min: 90% B; 0.1 to 4.1 min: from 90% B to 74% B; 4.1 to 4.2 min: from 74% B to 5% B; 4.2 to 4.6 min: 5% B; 4.6 to 4.7 min: from 5% B to 90% B; 4.7-5.1 min; 90% B. Detection was performed using a Sciex AP16600 TOF mass spectrometer. Toxicokinetic parameters were estimated from concentration-time data using Phoenix pharmacokinetic software (version 6.4, Certara L.P.). […]

[2] = target: T1, human CAIX (Homo sapiens, UniProt Q16790); assay: Surface Plasmon Resonance (SPR) binding to captured human CAIX (Biacore T200); details: 25° C.
T1 construct: purchased Sino Biological 10107-H02H
Description: Surface Plasmon Resonance (SPR) studies were performed on a Biacore™ T200 using a ligand capture approach. Basically, anti-human Fc antibodies were immobilized on the surface of a sensor chip and CAIX was captured on the functionalized surface via its Fc Tag. Then, each compound was injected at increasing concentrations on the captured CAIX in order to measure the in real-time interaction of the compound to its target (i.e., the captured CAIX). The in real-time monitoring of the association and dissociation of the interaction gives access to the interaction kinetics parameters (i.e., the association and dissociation rate constants and the resulting affinity constants). […]
• For each measurement, the raw surface plasmon resonance response (RU) was plotted against time (s) as a sensorgram using the Biacore™ T200 Control Software. • Raw data were corrected by double referencing with subtraction of the signal of both the reference flow-cell and the blank cycle. • The association and dissociation rate constants (ka and kd, respectively), as well as the dissociation constant KD and dissociation half-life t½ were determined from the corrected sensorgrams by fitting the data to a 1:1 Langmuir binding model with the Biacore™ T200 evaluation software.

[3] = Allometric prediction of human PK parameters from mouse and dog PK; details: allometry from mouse and dog
Description: From the variety of CL, Vd and T1/2 determined in the animal studies, the highest and lowest values for each species were retained, and allometry was conducted on all the combinations to obtain a range for each predicted human PK parameter.

[4] = GLP extended single-dose i.v. toxicity study in beagle dogs; type: in vivo, dog
Description: The following parameters and endpoints were evaluated: mortality, clinical observations, body weights, food consumption, body temperature, local reactions, ophthalmology, clinical pathology parameters (hematology, coagulation, clinical chemistry, and urinalysis), cardiovascular and respiratory safety pharmacology endpoints along with FOB evaluation, organ weights, and macroscopic and microscopic examinations, and TK parameters. The animals from subset A (3 males and 3 females per group) were sampled for toxicokinetics (TK) at: pre-dose, 5 min, 15 min, 30 min, 1 h, 2 h, 3 h and 6 h. Blood samples were collected in K2EDTA tubes. Plasma was prepared by centrifugation (2500 g for 10 minutes, +4° C.) within 1 hour after collection, and then frozen within 1 hour after centrifugation and stored at −80° C. […] Chromatographic separation was achieved using a Waters Acquity UPLC system with a Waters Acquity HSS T3 C18 2.1×50 mm, 1.8 μm column. Chromatography was conducted at 50° C. at a flow rate of 0.7 mL/min using a mobile phase consisting of A: 1% formic acid in acetonitrile, and B: 1% formic acid in water, according to the following linear gradient: 0 to 0.1 min: 90% B; 0.1 to 4.1 min: from 90% B to 74% B; 4.1 to 4.2 min: from 74% B to 5% B; 4.2 to 4.6 min: 5% B; 4.6 to 4.7 min: from 5% B to 90% B; 4.7-5.1 min; 90% B. Detection was performed using a Sciex AP16600 TOF mass spectrometer. Toxicokinetic parameters were estimated from concentration-time data using Phoenix pharmacokinetic software (version 6.4, Certara L.P.). A non-compartmental approach consistent with the bolus intravenous injection was used for parameter estimation.

[5] = Biodistribution of In-111-labeled compounds by SPECT/CT in HT-29 tumor-bearing mice; type: in vivo, mouse; details: mouse
Description: (§1) The effect on tumor uptake of prior injection of gelofusine for kidney protection was investigated in mice bearing the SK-RC-52 tumor. Biodistribution was evaluated using in vivo SPECT/CT imaging. Prior to the in vivo study the compounds (ligands) were initially radiolabeled with In-111 and the stability of radiolabeled compounds was evaluated in buffer at three different timepoints.
(§2) The study was performed in female NMRI nude mice (approximately 6 weeks of age) from Janvier Labs, France, housed up to 5 mice per cage.
(§3) The column was washed with 2 mL water, and then the final product was eluted from the column in EtOH solution (50%) • The sample was formulated in PBS to the final concentration of 150 MBq/mL and 5 nmol/mL.
(§4) SK-RC-52 cells were cultured in RPMI 1640 with GlutaMax-I (Thermo Fisher Scientific #61870044) supplemented with 10% fetal bovine serum+1% penicillin/streptomycin, harvested, washed twice in RPMI 1640 and resuspended at 2×10^7 cells/mL in RPMI 1640. HT-29 cells were cultured in McCoy's 5a Medium Modified (Sigma #M9309). For inoculation of HT-29 cells, cells were harvested, washed twice in PBS and resuspended at 5×10^7 cells/mL in PBS. Cells were kept on ice until inoculation.
(§5) Animals were anaesthetized (isoflurane, 2-4% in ambient air supplemented with 100% O2) prior to tumor inoculation. The tumor cells (100 μL suspension of either SK-RC-52 cells (2×10^6 cells/animal) or HT-29 cells (5×10^6 cells/animal)) were subcutaneously inoculated in the right flank using a 1-mL syringe equipped with a 27G needle. Tumor growth and animal weight were measured twice per week. Tumor size was measured by caliper and the volume was estimated using the following formula: 0.52×(length×width^2). When tumor sizes reached 150-250 mm^3, animals were randomized into groups (n=3) of similar average tumor volume and body weight.
(§6) Animals were injected intravenously with In-111-labeled compounds (single bolus, 22.3-31.2 MBq, ~1 nmol ligand, injection volume: 100 μL) in the lateral tail vein using a 29G syringe.
(§7) CT was performed with helical scan, 300 ms exposure, reconstruction resolution of 250 μm. SPECT was performed with multi-pinhole scan and a 30 s frame time. For the quantification of the radioactivity uptake, regions of interests (ROIs) were drawn over the tumor, kidney, liver, and heart (estimate of blood) identified on the images. Uptake was expressed as percent of injected dose per gram tissue (% ID/g).

[6] = test system: HT-29 tumor; assay: as above; type: in vivo, mouse
Description: as §1, §2, §3, §4, §5, §6, §7

For `CC(C)C[C@@H]1NC(=O)[C@H](Cc2cccc(NC(=O)CCCS(N)(=O)=O)c2)NC(=O)[C@H](CC(=O)O)NC(=O)[C@H]2CCCN2C(=O)[C@H](CCC(=O)O)NC(=O)[C@@H](NC(=O)[C@H](CCC(N)=O)NC(=O)CN2CCN(C(=O)CN3CCN(CC(=O)O)CCN(CC(=O)O)CCN(CC(=O)O)CC3)CC2)CSCc2cccc(c2)CSC[C@@H](C(N)=O)NC(=O)[C@H](CO)NC(=O)[C@H](Cc2c[nH]c3ccccc23)NC(=O)[C@H]([C@@H](C)O)NC1=O` [DPI-4452, DOTA-PPAc-Gln-[Cys(3MeBn)-Glu-pro-Asp-Af3(Cpsu)-Leu-Thr-Trp-Ser-Cys]-NH2] ({DOTA}-[X1]QCE[dP]D[Phe(3-NHCO(CH2)3SO2NH2)]LTWSC-NH2; linker 3-12 via mXylylene), the Tolerability [1] was “well tolerated systemically and locally”, the “t1/2 (dissociation half-life)” value [2] was 99 min and the “Predicted human clearance (CL)” value [3] was 3.57 to 13.0 mL/min/kg. The “Predicted human terminal half-life (T1/2)” value [3] was 10.2 to 88.2 min, the “Predicted human volume of distribution (Vd)” value [3] was 0.189 to 0.455 L/kg and the “Human equivalent dose of the dog NOAEL” value ([4]; considering a 60 kg human) was 13.3 mg. The “Clinical signs or local reactions” value ([4]; dog, single i.v. 16, 80, 400 μg/kg) was “no DPI-4452 treatment-related clinical signs or local reactions were observed”, the Tolerability ([4]; dog, single i.v. bolus up to 400 μg/kg) was “well tolerated” and the tissue uptake ([5]; ht-29 tumor, HT-29, Mean ± SEM, N=3, read-out: Peak Tumor Uptake) was 5.21 ± 1.22 %ID/g. For the same compound, the tissue uptake ([5]; kidney, HT-29 mice, read-out: Peak Kidney uptake) was 5.37 ± 1.45 %ID/g, the “% remaining tumor uptake at 24 h p.i.” value ([6]; HT-29) was 65.8 ± 3.8% and the “Time to peak uptake in tumor” value ([6]; HT-29) was 2 h. The “Blood uptake at 4 h p.i.” value ([6]; HT-29 mice) was 0.04 ± 0.002 % ID/g, the “Kidney uptake at 24 h p.i.” value ([6]; HT-29 mice) was 1.41 ± 0.11 % ID/g and the “Liver uptake at 4 h p.i.” value ([6]; HT-29 mice) was 0.12 ± 0.005 % ID/g.
